Reference: ChEMBL document CHEMBL1201862, “PubChem BioAssay data set” (2004)
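Results reflect a 48-hour exposure of cells in 96-well plates to compound at five concentrations. Abbreviation: GI50, concentration required for 50% inhibition of growth.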 Active and inactive are the calls of the source. Cut-off read from the data, not from the text of the source: active = GI50 up to about 1.1 µM and inactive = higher.

Tests used:
Experiment in all cases: NCI-60 cell line screen, 48 h
[1] = tested on: CCRF-CEM
[2] = tested on: OVCAR-5
[3] = tested on: RXF 393
[4] = tested on: MDA-MB-231
[5] = tested on: OVCAR-3
[6] = tested on: 786-0
[7] = tested on: DU-145
[8] = tested on: U-251
[9] = tested on: HT-29
[10] = tested on: TK-10
[11] = tested on: NCI-H460
[12] = tested on: HCT-116
[13] = tested on: HOP-92
[14] = tested on: COLO 205
[15] = tested on: UO-31
[16] = tested on: K562
[17] = tested on: EKVX
[18] = tested on: Malme-3M
[19] = tested on: NCI/ADR-RES
[20] = tested on: SNB-75
[21] = tested on: HOP-62
[22] = tested on: ACHN
[23] = tested on: BT-549
[24] = tested on: CAKI-1
[25] = tested on: IGROV-1
[26] = tested on: SK-MEL-2
[27] = tested on: SW-620
[28] = tested on: MDA-N
[29] = tested on: SN12C
[30] = tested on: M14
[31] = tested on: OVCAR-8
[32] = tested on: SF-539
[33] = tested on: NCI-H226
[34] = tested on: LOX IMVI
[35] = tested on: NCI-H522
[36] = tested on: HCT-15
[37] = tested on: SK-OV-3
[38] = tested on: SNB-19
[39] = tested on: SF-295
[40] = tested on: A549
[41] = tested on: A498
[42] = tested on: UACC-62
[43] = tested on: Hs-578T
[44] = tested on: PC-3
[45] = tested on: UACC-257
[46] = tested on: T47D
[47] = tested on: SK-MEL-28
[48] = tested on: SK-MEL-5
[49] = tested on: SF-268
[50] = tested on: MOLT-4
[51] = tested on: HL-60
[52] = tested on: KM12
[53] = tested on: RPMI-8226
[54] = tested on: MDA-MB-435
[55] = tested on: NCI-H23
[56] = tested on: OVCAR-4
[57] = tested on: HCC 2998

## COC(=O)C(Cc1c(C2Nc3ccccc3C2CC(NC(C)=O)C(=O)OC)[nH]c2ccccc12)NC(C)=O (centres undefined)
[1]
  GI50: > 100 µM (inactive)
[2]
  GI50: > 100 µM (inactive)
[3]
  GI50: > 100 µM (inactive)
[4]
  GI50: > 100 µM (inactive)
[5]
  GI50: > 100 µM (inactive)
[6]
  GI50: > 100 µM (inactive)
[7]
  GI50: > 100 µM (inactive)
[8]
  GI50: > 100 µM (inactive)
[9]
  GI50: > 100 µM (inactive)
[10]
  GI50: > 100 µM (inactive)
[11]
  GI50: > 100 µM (inactive)
[12]
  GI50: > 100 µM (inactive)
[13]
  GI50: > 100 µM (inactive)
[14]
  GI50: > 100 µM (inactive)
[15]
  GI50: > 100 µM (inactive)
[16]
  GI50: > 100 µM (inactive)
[17]
  GI50: > 100 µM (inactive)
[18]
  GI50: > 100 µM (inactive)
[19]
  GI50: > 100 µM (inactive)
[20]
  GI50: > 100 µM (inactive)
[21]
  GI50: > 100 µM (inactive)
[22]
  GI50: > 100 µM (inactive)
[23]
  GI50: > 100 µM (inactive)
[24]
  GI50: > 100 µM (inactive)
[25]
  GI50: > 100 µM (inactive)
[26]
  GI50: > 100 µM (inactive)
[27]
  GI50: > 100 µM (inactive)
[28]
  GI50: > 100 µM (inactive)
[29]
  GI50: > 100 µM (inactive)
[30]
  GI50: > 100 µM (inactive)
[31]
  GI50: > 100 µM (inactive)
[32]
  GI50: > 100 µM (inactive)
[33]
  GI50: > 100 µM (inactive)
[34]
  GI50: > 100 µM (inactive)
[35]
  GI50: > 100 µM (inactive)
[36]
  GI50: > 100 µM
[37]
  GI50: > 100 µM (inactive)
[38]
  GI50: > 100 µM (inactive)
[39]
  GI50: > 100 µM (inactive)
[40]
  GI50: > 100 µM (inactive)
[41]
  GI50: > 100 µM (inactive)
[42]
  GI50: > 100 µM (inactive)
[43]
  GI50: > 100 µM (inactive)
[44]
  GI50: > 100 µM (inactive)
[45]
  GI50: > 100 µM (inactive)
[46]
  GI50: > 100 µM (inactive)
[47]
  GI50: > 100 µM (inactive)
[48]
  GI50: > 100 µM (inactive)
[49]
  GI50: > 100 µM (inactive)
[50]
  GI50: > 100 µM (inactive)
[51]
  GI50: > 100 µM (inactive)
[52]
  GI50: > 100 µM (inactive)
[53]
  GI50: > 100 µM (inactive)
[54]
  GI50: > 100 µM (inactive)
[55]
  GI50: > 100 µM (inactive)

## CCOC(=O)c1sc2nc(SC)nc3c2c1NCN3c1ccccc1Cl
[1]
  GI50: > 100 µM (inactive)
[56]
  GI50: 38.5 µM (inactive)
[2]
  GI50: > 100 µM (inactive)
[3]
  GI50: 19.3 µM (inactive)
[4]
  GI50: 76.4 µM (inactive)
[5]
  GI50: 84.5 µM (inactive)
[6]
  GI50: 24.3 µM (inactive)
[7]
  GI50: 75.3 µM (inactive)
[8]
  GI50: 43.8 µM (inactive)
[9]
  GI50: 72.1 µM (inactive)
[10]
  GI50: 37.8 µM (inactive)
[11]
  GI50: 30.7 µM (inactive)
[12]
  GI50: 31.8 µM (inactive)
[13]
  GI50: 25.3 µM (inactive)
[14]
  GI50: > 100 µM (inactive)
[15]
  GI50: 70.5 µM (inactive)
[16]
  GI50: > 100 µM (inactive)
[18]
  GI50: 31.8 µM (inactive)
[19]
  GI50: 40.2 µM (inactive)
[20]
  GI50: 24.8 µM (inactive)
[21]
  GI50: 40.9 µM (inactive)
[22]
  GI50: 55.1 µM (inactive)
[23]
  GI50: 42.7 µM (inactive)
[24]
  GI50: 50.8 µM (inactive)
[25]
  GI50: 63 µM (inactive)
[26]
  GI50: 97.3 µM (inactive)
[27]
  GI50: 80.2 µM (inactive)
[28]
  GI50: 71.4 µM (inactive)
[29]
  GI50: > 100 µM (inactive)
[30]
  GI50: > 100 µM (inactive)
[31]
  GI50: 31.7 µM (inactive)
[33]
  GI50: > 100 µM (inactive)
[34]
  GI50: 35.6 µM (inactive)
[35]
  GI50: 26.5 µM (inactive)
[36]
  GI50: 71.1 µM
[37]
  GI50: 56.6 µM (inactive)
[38]
  GI50: 48.3 µM (inactive)
[39]
  GI50: 52.6 µM (inactive)
[40]
  GI50: 38.7 µM (inactive)
[41]
  GI50: 37.8 µM (inactive)
[42]
  GI50: 37.4 µM (inactive)
[43]
  GI50: 35.4 µM (inactive)
[44]
  GI50: 29.4 µM (inactive)
[45]
  GI50: 48.8 µM (inactive)
[46]
  GI50: 23.7 µM (inactive)
[47]
  GI50: 55.2 µM (inactive)
[48]
  GI50: 31.5 µM (inactive)
[49]
  GI50: 38.7 µM (inactive)
[50]
  GI50: > 100 µM (inactive)
[57]
  GI50: 56.5 µM (inactive)
[52]
  GI50: > 100 µM (inactive)
[53]
  GI50: > 100 µM (inactive)
[54]
  GI50: > 100 µM (inactive)
[55]
  GI50: 42.2 µM (inactive)
